# Measurements published in US12583900B2, “Peptide conjugates and methods of use” (The Scripps Research Institute, priority 2019, dated 2026).
# Tests used:
# Assay type in all cases: in vivo, mouse
# C57BL/6J mice [1] = test: Oral glucose tolerance test 6 h, 48 h, 96 h post dose (GLP-1R/GCGR agonists); settings: 48 h after administration
# Experimental: C57BL/6J mice (n=6/group) between 10-12 weeks old were fasted overnight and then administrated with 5 mL/kg of each peptide in PBS (pH=8.2) by s.c. route. After 6 hours, mice were orally or intraperitoneally administrated with 2 g of glucose solution per kg body weight and their tail blood glucose levels were measured before (0 min) and after glucose challenge for 2 hours. Follow up OGTT were also performed at 48 h, and 96 h post-original dose in same mice after overnight fast.
# The efficacy of the GLP-1R/GCGR dual agonist 135 was then evaluated in an oral glucose tolerance test (OGTT) in wilt type mice.
# DIO mice (C57BL/6) = test: DIO mice study, daily s.c. dosing 21 days, plasma and liver analyses (28-week old)
# Source text: All animal care and experimental procedures were approved by the Institutional Animal Care and Use Committee (IACUC) of California Institute for Biomedical Research (Calibr) and strictly followed the NIH guidelines for humane treatment of animals. The results are expressed as means S.E., and the data were compared using the unpaired Student's t test. Where appropriate, data were compared using repeated measures or one-way analysis of variance, followed by the Student-Newman-Keuls post hoc test. Incremental area under the curve (AUC) analyses for plasma glucose was calculated using GraphPad Prism 6.
# DIO mice (C57BL/6, male, 28-week old) were randomized based on their body weight and were treated with daily subcutaneous injections of peptide or vehicle (n=7/group). Body weight and food intake were monitored daily throughout the study. At the end of the experiment, mice were sacrificed, and visceral fat mass were weighed. Collected plasma was used for cholesterol level determination according to the manufacturer's guide (cholesterol assay kit, Abcam, Cambridge, England) and triglyceride level using a triglyceride colorimetric assay kit (Cayman chemical, Ann Arbor, Michigan).
# Collected plasma was used for cholesterol level determination according to the manufacturer's guide (cholesterol assay kit, Abcam, Cambridge, England). Briefly, plasma was diluted using cholesterol assay buffer and then reacted with the same volume of reaction mix containing cholesterol assay buffer, cholesterol probe, enzyme mix and cholesterol esterase. After incubation at 37° C. for 1 hour, the absorbance at 560 nm was measured using an Envision multilabel plate reader (PerkinElmer, Waltham, MA). Subsequently, the concentration of cholesterol in plasma was calculated according to a standard curve.
# Collected plasma was used for triglyceride level determination using a triglyceride colorimetric assay kit (Cayman chemical, Ann Arbor, Michigan). 5 μL of plasma samples or standard were plated into a 384 well plate and followed by adding 75 μL of diluted enzyme buffer to each well. The mixture was incubated at room temperature for 15 min, and the absorbance was read at 560 nm using an Envision plate reader (PerkinElmer, Waltham, MA). The concentration of triglyceride in plasma was calculated using a standard curve.
# Terminal serum analytes including total cholesterol, triglyceride, alanine aminotransferase (ALT), aspartate aminotransferase (AST), alkaline phosphatase (ALP) were determined by Alfa Wassermann Vet Axcel® clinical analyzer. Hepatic triglycerides were measured in liver homogenates generated with a colorimetric triglyceride kit (Cayman Chemical). Paraformaldehyde-fixed liver were paraffin-embedded, sectioned and stained with hematoxylin-eosin and Picro-Sirius red by HistoTox Labs (Boulder, CO). All histological assessment (steatosis, fibrosis scoring) were performed by a certified histopathologist blind to treatment (HistoTox Labs) based on classification outlined by Kleiner et al.^3
# C57BL/6J mice [2] = test: Oral glucose tolerance test 2 h, 72 h, 96 h, […] post dose (GLP-1R/GIPR agonists)
# Experimental: C57BL/6J mice (n=6/group) between 10-12 weeks old were fasted overnight and then administrated with 5 mL/kg of each peptide in PBS (pH=8.2) by s.c. route. […]
compound,measurement,setting,value
CCCCCCCCCCCCCCCC(=O)N[C@@H](CCC(=O)NCCCC[C@H](NC(=O)[C@H](CC(=O)O)NC(=O)[C@H](CO)NC(=O)[C@@H](NC(=O)[C@H](Cc1ccccc1)NC(=O)[C@@H](NC(=O)CNC(=O)[C@H](CCC(N)=O)NC(=O)[C@H](CO)NC(=O)[C@@H](N)Cc1c[nH]cn1)[C@@H](C)O)[C@@H](C)O)C(=O)N[C@@H](CO)C(=O)N[C@@H](CCC(=O)O)C(=O)N[C@@H](Cc1ccc(O)cc1)C(=O)N[C@@H](CC(C)C)C(=O)N[C@@H](CC(=O)O)C(=O)N[C@@H](CO)C(=O)N[C@@H](CCC(=O)O)C(=O)N[C@@H](CCCNC(=N)N)C(=O)N[C@@H](C)C(=O)N[C@@H](CCCNC(=N)N)C(=O)N[C@@H](CC(=O)O)C(=O)N[C@@H](Cc1ccccc1)C(=O)N[C@H](C(=O)N[C@@H](C)C(=O)N[C@@H](Cc1c[nH]c2ccccc12)C(=O)N[C@@H](CC(C)C)C(=O)N[C@@H](CCC(=O)O)C(=O)N[C@@H](C)C(=O)NCC(=O)NCC(=O)O)C(C)C)C(=O)O [cotadutide],glucose handling in OGTT,C57BL/6J mice [1],did not exhibit any improvement over the vehicle
same,plasma glucose excursions in a fasted state,DIO mice (C57BL/6); day 21,significant decrease
same,liver to bodyweight ratio,DIO mice (C57BL/6); vs vehicle,significantly decreased
same,liver triglyceride level,DIO mice (C57BL/6); vs vehicle,significantly decreased
same,liver weight,DIO mice (C57BL/6); vs vehicle,significantly decreased
semaglutide,OGTT blood glucose levels as measured by the AUC vs vehicle,C57BL/6J mice [2]; 2 hours post dose,significant decrease
same,fasted glucose levels vs vehicle,C57BL/6J mice [2]; 2 hours post treatment,significant decrease
same,OGTT blood glucose levels as measured by the AUC vs vehicle,C57BL/6J mice [2]; 72 hours post dose,significant decrease
same,fasted glucose levels vs vehicle,C57BL/6J mice [2]; 72 hours post treatment,significant decrease
same,OGTT blood glucose levels as measured by the AUC vs vehicle,C57BL/6J mice [2]; 96 hours post dose,significant decrease
same,fasted glucose levels vs vehicle,C57BL/6J mice [2]; 96 hours post treatment,significant decrease
same,OGTT blood glucose levels as measured by the AUC vs vehicle,C57BL/6J mice [2]; […] post dose,significant decrease
same,fasted glucose levels vs vehicle,C57BL/6J mice [2]; […] post treatment,significant decrease
same,food consumption over 20 days vs vehicle,"DIO mice (C57BL/6); DIO mice, daily s.c.",reduction
same,total bodyweight and percent change from initial bodyweight over 21 days,"DIO mice (C57BL/6); DIO mice, daily s.c.",decrease
same,plasma glucose excursions in a fed state,DIO mice (C57BL/6); day 20,significant decrease
same,OGTT glucose levels over time and AUC,DIO mice (C57BL/6); day 21,significant decrease
same,plasma glucose excursions in a fasted state,DIO mice (C57BL/6); day 21,significant decrease
same,plasma level of ALP,"DIO mice (C57BL/6); terminal, vs vehicle",significantly reduced
same,plasma level of ALT,"DIO mice (C57BL/6); terminal, vs vehicle",significantly reduced
same,plasma level of cholesterol,"DIO mice (C57BL/6); terminal, vs vehicle",significantly reduced
same,plasma level of triglycerides,"DIO mice (C57BL/6); terminal, vs vehicle",significantly reduced
same,fat weight,DIO mice (C57BL/6); vs vehicle,significantly reduced
same,liver to bodyweight ratio,DIO mice (C57BL/6); vs vehicle,significantly decreased
same,liver triglyceride level,DIO mice (C57BL/6); vs vehicle,significantly decreased
same,liver weight,DIO mice (C57BL/6); vs vehicle,significantly decreased
same,steatosis grade,DIO mice (C57BL/6); vs vehicle,reduced
